According to patent US10894807B2 (Siemens Medical Solutions USA, Inc., priority 2011, dated 2021):

Molecular target: human PSMA (Homo sapiens (Human), UniProt Q04609)
Assay: Enzymatic assay for in vitro evaluation of PSMA inhibitors (fluorescent assay of PSMA activity, NAAG substrate, OPA detection of glutamate)
Type: biochemical
Procedure: Enzymatic Assay for In Vitro Evaluation of PSMA Inhibitors
The inhibitory activity of all compounds was determined using a fluorescent assay of human PSMA activity. The enzyme used in the assay was purchased from R&D Systems and stored at −80° C. The PSMA activity was assayed in a two-step process. In the first step, aliquots of enzyme (0.2 μg/mL) were incubated for 1 h at 37° C. in 50 mM HEPES, 0.1 M NaCl, pH 7.5, in the presence of 20 μM NAAG and the given inhibitor, in a volume of 250 μL, to allow for the accumulation of glutamate produced in the PSMA reaction. In the second step, the amount of accumulated glutamate was measured using the OPA reaction, and the fluorescence was read with a SpectraMax fluorescent plate reader using excitation at 330 nm and emission at 450 nm. The final Ki values for each inhibitor were calculated from the respective IC50 values using the Cheng and Prusoff equation.

human PSMA, sequence (Q04609 whole entry): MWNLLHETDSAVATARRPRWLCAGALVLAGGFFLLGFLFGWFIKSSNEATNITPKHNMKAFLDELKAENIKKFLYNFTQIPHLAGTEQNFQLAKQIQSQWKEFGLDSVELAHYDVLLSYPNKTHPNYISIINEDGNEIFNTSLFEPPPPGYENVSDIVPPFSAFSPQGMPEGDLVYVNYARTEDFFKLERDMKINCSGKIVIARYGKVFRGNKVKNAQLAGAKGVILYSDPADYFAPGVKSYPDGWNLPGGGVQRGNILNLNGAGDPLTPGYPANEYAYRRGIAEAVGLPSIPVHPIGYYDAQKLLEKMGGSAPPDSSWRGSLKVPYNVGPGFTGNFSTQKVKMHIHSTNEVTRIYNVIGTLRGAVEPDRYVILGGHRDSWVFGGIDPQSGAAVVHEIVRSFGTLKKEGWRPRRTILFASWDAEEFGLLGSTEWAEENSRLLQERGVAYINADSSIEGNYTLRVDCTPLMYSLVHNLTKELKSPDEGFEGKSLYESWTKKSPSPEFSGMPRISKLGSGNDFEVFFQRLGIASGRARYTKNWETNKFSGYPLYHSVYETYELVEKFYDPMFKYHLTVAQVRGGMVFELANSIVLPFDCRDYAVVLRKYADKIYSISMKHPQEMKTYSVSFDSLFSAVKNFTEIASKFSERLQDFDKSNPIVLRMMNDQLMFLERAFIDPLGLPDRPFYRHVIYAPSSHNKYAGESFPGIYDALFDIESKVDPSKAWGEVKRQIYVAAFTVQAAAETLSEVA

“2-(4-(2-(((Benzyloxy)carbonyl)amino)-3-methoxy-3-oxopropyl)-1H-1,2,3-triazol-1-yl)pentanedioic Acid [P124]” was tested, and the “PSMA Blkg % (10 μM)” value (compound at 10 μM) was 10%.

In the case of `O=C(O)CC[C@H](NC(=O)N[C@@H](CCCCNC(=O)N1CCN(C(=O)c2ccc(-n3cc(CCCF)nn3)cc2)CC1)C(=O)O)C(=O)O` (stereo in doubt) [P249, (S)-2-(3-((S)-1-Carboxy-5-(4-(4-(4-(3-fluoropropyl)-1H-1,2,3-triazol-1-yl)benzoyl)-piperizine-1-carboxamido)pentyl)ureido)pentanedioic Acid], the Ki is reported as 9.4 nM.

In the case of `O=C(O)CC[C@H](NC(=O)N[C@@H](CCCCNc1cc(OCC(COc2ccc([N+](=O)[O-])c(NCCCC[C@H](NC(=O)N[C@@H](CCC(=O)O)C(=O)O)C(=O)O)c2)n2cc(CCCF)nn2)ccc1[N+](=O)[O-])C(=O)O)C(=O)O` (stereo in doubt) [P266, (2S)-2-(3-((1)-1-Carboxy-5-((5-(3-(3-(((S)-5-carboxy-5-(3-((S)-1,3-dicarboxypropyl)ureido)pentyl)amino)-4-nitrophenoxy)-2-(4-(3-fluoropropyl)-1H-1,2,3-triazol-1-yl)propoxy)-2-nitrophenyl)amino)pentyl)ureido)pentanedioic Acid], the Ki is reported as 0.3 nM.

With `O=C(O)CCC(NC(=O)N[C@@H](CCCCNc1nc(NCCN(CCNc2ccc([N+](=O)[O-])c(NCCCCC(NC(=O)N[C@@H](CCC(=O)O)C(=O)O)C(=O)O)n2)CCNc2ccc([N+](=O)[O-])c(NCCCCC(NC(=O)N[C@@H](CCC(=O)O)C(=O)O)C(=O)O)n2)ccc1[N+](=O)[O-])C(=O)O)C(=O)O` (stereo in doubt) [P270, (2S,2′S,2″S)-2,2′,2″-(((((1S,1′S,1″S)-((6,6′,6″-((Nitrilotris(ethane-2,1-diyl))tris(azanediyl))tris(3-nitropyridine-6,2-diyl))tris(azanediyl))tris(1-carboxypentane-5,1-diyl))tris(azanediyl))tris(carbonyl))tris(azanediyl))tripentanedioic Acid] the Ki was 0.2 nM and the “PSMA Blkg % (1.0 μM)” value (1.0 μM) was 71%.

In the case of `O=C(O)CC[C@H](NC(=O)NC(Cc1ccc(NC(=O)N2CCN(C(=O)c3cc(NC(=O)Cn4cc(CCCF)nn4)cc(C(=O)N4CCN(C(=O)Nc5ccc(CC(NC(=O)N[C@@H](CCC(=O)O)C(=O)O)C(=O)O)cc5)CC4)c3)CC2)cc1)C(=O)O)C(=O)O` (stereo in doubt) [P274, (2S,2′S)-2,2′-(((((1S,1′S)-(((4,4′-(5-(2-(4-(3-Fluoropropyl)-1H-1,2,3-triazol-1-yl)acetamido)isophthaloyl)bis(piperazine-1,1′-carbonyl))bis(azanediyl))bis(4,1-phenylene))bis(1-carboxyethane-2,1-diyl))bis(azanediyl))bis(carbonyl))bis(azanediyl))dipentanedioic Acid], the Ki is reported as 13.1 nM.

For `O=C(O)CC[C@H](NC(=O)NC(Cc1ccc(NC(=O)N2CCN(C(=O)c3cc(C(=O)N4CCN(C(=O)Nc5ccc(CC(NC(=O)N[C@@H](CCC(=O)O)C(=O)O)C(=O)O)cc5)CC4)cc(-n4cc(CCCF)nn4)c3)CC2)cc1)C(=O)O)C(=O)O` (stereo in doubt) [P275, (2S,2′S)-2,2′-(((((1S,1′S)-(((4,4′-(5-(4-(3-Fluoropropyl)-1H-1,2,3-triazol-1-yl)isophthaloyl)bis(piperazine-1,1′-carbonyl))bis(azanediyl))bis(4,1-phenylene))bis(1-carboxyethane-2,1-diyl))bis(azanediyl))bis(carbonyl))bis(azanediyl))dipentanedioic Acid], the Ki was 6.6 nM.

Molecule `O=C(O)CCC(NC(=O)N[C@@H](CCCCNc1cc(OCC(COc2ccc([N+](=O)[O-])c(NCCCCC(NC(=O)N[C@@H](CCC(=O)O)C(=O)O)C(=O)O)c2)OCc2cn(CCF)nn2)ccc1[N+](=O)[O-])C(=O)O)C(=O)O` (stereo in doubt) [P277, (2S)-2-(3-((1S)-1-Carboxy-5-((5-(3-(3-(((S)-5-carboxy-5-(3-((S)-1,3-dicarboxypropyl)ureido)pentyl)amino)-4-nitrophenoxy)-2-((1-(2-fluoroethyl)-1H-1,2,3-triazol-4-yl)methoxy)propoxy)-2-nitrophenyl)amino)pentyl)ureido)pentanedioic Acid] has a Ki of 0.4 nM.
